Reference: US11739098B2 (BRISTOL-MYERS SQUIBB COMPANY, priority 2017, dated 2023)

How the values were obtained:
Assay type in all cases: cell-based
human TLR8 = molecular target: T1, human TLR8 (Homo sapiens, UniProt Q9NR97); test: TLR8 inhibition reporter assay (HEK-Blue cells, SEAP reporter, R848 stimulation); conditions: HEK-Blue cells overexpressing human TLR8, SEAP reporter, R848 15.9 μM
T1 construct: host or cells: HEK-Blue cells (HEK293-derived reporter line)
T1 sequence (Q9NR97 27-1041): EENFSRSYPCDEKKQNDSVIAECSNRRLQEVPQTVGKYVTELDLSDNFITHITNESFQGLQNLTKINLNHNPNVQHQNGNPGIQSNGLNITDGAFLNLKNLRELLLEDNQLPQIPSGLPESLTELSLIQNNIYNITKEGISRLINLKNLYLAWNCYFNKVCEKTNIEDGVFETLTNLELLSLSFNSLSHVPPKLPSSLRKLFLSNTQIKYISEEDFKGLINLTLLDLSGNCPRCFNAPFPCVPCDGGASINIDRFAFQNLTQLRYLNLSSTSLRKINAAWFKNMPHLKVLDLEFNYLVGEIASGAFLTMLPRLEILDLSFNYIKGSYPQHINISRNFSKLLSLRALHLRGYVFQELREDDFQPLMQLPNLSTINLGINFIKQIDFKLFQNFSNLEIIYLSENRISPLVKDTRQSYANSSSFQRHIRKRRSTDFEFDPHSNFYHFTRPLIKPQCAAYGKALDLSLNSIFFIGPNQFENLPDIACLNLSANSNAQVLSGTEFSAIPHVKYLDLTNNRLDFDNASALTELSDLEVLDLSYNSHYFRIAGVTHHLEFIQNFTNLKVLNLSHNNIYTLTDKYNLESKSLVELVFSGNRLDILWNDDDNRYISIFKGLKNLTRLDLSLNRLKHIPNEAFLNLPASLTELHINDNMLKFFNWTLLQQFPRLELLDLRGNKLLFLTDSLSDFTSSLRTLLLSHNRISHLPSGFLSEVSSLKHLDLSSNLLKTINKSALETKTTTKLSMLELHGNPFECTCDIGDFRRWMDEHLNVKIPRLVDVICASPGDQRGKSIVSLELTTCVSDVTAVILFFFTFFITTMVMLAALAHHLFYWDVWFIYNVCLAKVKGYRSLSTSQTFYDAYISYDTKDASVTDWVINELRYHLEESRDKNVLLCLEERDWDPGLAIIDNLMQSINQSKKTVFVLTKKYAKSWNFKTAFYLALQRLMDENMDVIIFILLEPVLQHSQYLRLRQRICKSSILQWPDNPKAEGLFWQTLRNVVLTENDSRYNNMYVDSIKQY
How it was run: (§1)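 Percent inhibition of agonist-induced SEAP secretion in HEK-Blue cells after 22 h at 37 °C. Stimuli: 7.5 μM gardiquimod, 15.9 μM R848, 5 nM ODN2006 for TLR7, TLR8 and TLR9, added after 30 min compound exposure over a 0.05 nM–50 μM range.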

human TLR9 = molecular target: T2, human TLR9 (Homo sapiens, UniProt Q9NR96); test: TLR9 inhibition reporter assay (HEK-Blue cells, SEAP reporter, ODN2006 stimulation); conditions: HEK-Blue cells overexpressing human TLR9, SEAP reporter, ODN2006 5 nM
T2 construct: host or cells: HEK-Blue cells (HEK293-derived reporter line)
T2 sequence (Q9NR96 26-1032): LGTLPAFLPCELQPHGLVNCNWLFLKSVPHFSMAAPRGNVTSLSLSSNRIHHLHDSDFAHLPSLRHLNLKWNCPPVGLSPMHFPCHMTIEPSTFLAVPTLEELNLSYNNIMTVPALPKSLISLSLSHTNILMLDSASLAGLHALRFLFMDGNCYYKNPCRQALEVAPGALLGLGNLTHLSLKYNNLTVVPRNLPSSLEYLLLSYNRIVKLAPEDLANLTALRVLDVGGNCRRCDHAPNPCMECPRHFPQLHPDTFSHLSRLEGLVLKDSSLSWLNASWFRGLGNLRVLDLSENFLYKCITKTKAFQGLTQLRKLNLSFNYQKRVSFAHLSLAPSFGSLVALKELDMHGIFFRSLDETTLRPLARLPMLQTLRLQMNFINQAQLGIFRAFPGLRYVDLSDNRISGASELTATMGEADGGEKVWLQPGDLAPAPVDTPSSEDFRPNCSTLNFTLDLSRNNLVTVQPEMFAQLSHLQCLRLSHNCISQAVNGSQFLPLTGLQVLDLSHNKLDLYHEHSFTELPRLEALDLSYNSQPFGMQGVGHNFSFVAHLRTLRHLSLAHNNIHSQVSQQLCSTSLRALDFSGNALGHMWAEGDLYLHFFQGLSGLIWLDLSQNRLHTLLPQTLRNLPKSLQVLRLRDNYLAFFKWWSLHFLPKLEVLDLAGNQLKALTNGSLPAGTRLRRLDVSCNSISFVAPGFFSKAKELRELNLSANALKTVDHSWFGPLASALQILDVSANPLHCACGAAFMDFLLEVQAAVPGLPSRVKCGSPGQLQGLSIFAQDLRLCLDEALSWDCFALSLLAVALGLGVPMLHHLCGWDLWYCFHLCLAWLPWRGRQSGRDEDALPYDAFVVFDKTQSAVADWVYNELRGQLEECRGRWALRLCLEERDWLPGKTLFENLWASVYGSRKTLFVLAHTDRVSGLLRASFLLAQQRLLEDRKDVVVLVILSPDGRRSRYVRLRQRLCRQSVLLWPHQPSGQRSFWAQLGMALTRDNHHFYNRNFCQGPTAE
How it was run: as §1

human TLR7 = molecular target: T3, human TLR7 (Homo sapiens, UniProt Q9NYK1); test: TLR7 inhibition reporter assay (HEK-Blue cells, SEAP reporter, gardiquimod stimulation); conditions: HEK-Blue cells overexpressing human TLR7, SEAP reporter, gardiquimod 7.5 μM
T3 construct: host or cells: HEK-Blue cells (HEK293-derived reporter line)
T3 sequence (Q9NYK1 27-1049): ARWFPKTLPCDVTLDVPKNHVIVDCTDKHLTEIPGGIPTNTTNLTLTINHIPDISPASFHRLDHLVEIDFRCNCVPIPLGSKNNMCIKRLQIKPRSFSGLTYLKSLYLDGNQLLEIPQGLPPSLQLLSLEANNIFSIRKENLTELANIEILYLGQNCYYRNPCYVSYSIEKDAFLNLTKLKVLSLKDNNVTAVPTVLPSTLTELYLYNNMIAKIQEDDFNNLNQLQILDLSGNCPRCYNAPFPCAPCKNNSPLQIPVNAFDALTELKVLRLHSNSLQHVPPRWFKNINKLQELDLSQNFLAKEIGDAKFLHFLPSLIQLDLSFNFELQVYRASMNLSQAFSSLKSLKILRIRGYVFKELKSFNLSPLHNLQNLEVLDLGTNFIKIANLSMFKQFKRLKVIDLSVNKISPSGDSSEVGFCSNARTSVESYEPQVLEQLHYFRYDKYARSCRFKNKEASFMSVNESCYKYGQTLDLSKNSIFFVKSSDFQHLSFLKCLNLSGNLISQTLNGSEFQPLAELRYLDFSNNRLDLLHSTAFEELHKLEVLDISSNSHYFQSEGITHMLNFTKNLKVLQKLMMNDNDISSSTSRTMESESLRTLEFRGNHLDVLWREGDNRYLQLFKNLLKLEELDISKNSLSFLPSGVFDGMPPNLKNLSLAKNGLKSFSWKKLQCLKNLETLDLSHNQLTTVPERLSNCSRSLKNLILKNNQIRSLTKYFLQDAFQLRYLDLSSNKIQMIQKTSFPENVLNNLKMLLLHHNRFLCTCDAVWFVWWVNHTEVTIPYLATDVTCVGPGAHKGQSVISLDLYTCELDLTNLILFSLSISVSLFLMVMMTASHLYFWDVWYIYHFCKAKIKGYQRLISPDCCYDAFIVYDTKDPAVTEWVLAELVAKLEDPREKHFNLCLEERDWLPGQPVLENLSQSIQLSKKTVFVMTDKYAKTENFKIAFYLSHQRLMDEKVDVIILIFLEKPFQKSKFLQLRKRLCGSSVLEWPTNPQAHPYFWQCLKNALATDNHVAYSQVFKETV
How it was run: as §1

| Structure (SMILES) | IC50 (human TLR8) [nM] | IC50 (human TLR9) [nM] | IC50 (human TLR7) [nM] |
| --- | --- | --- | --- |
| CC(C)c1c(-c2ccnc3[nH]ncc23)[nH]c2cc(C(F)(F)F)c(C3CCNCC3)cc12 [Example 249, 4-(3-isopropyl-5-(piperidin-4-yl)-6-(trifluoromethyl)-1H-indol-2-yl)-1H-pyrazolo[3,4-b]pyridine] | 100 to 1000 | 1000 to 50000 | < 100 |
| Cc1cc2cc(-c3[nH]c4ccc(C5CCN(C(=O)CN(C)C)CC5)cc4c3C(C)C)ccn2n1 [Example 535, 2-(dimethylamino)-1-(4-(3-isopropyl-2-(2-methylpyrazolo[1,5-a]pyridin-5-yl)-1H-indol-5-yl)piperidin-1-yl)ethan-1-one] | 1000 to 50000 | 1000 to 50000 | 100 to 1000 |
| Cc1cnc2ccc(-c3[nH]c4ccc(C5CCNCC5)cc4c3C(C)C)cn12 [Example 114, 6-(3-isopropyl-5-(piperidin-4-yl)-1H-indol-2-yl)-3-methylimidazo[1,2-a]pyridine] | 100 to 1000 | 100 to 1000 | < 100 |
| CC(C)c1c(-c2ccn3nncc3c2)[nH]c2ccc(C3CCNCC3)cc12 [Example 81, 5-(3-isopropyl-5-(piperidin-4-yl)-1H-indol-2-yl)-[1,2,3]triazolo[1,5-a]pyridine] | 100 to 1000 | 1000 to 50000 | < 100 |
| CCc1c(-c2ccnc3[nH]cc(Cl)c23)[nH]c2ccc(C3CCNCC3)cc12 [Example 39, 3-chloro-4-(3-ethyl-5-(piperidin-4-yl)-1H-indol-2-yl)-1H-pyrrolo[2,3-b]pyridine] | 100 to 1000 | 1000 to 50000 | 100 to 1000 |
| Cc1cc(-c2[nH]c3ccc(C4CCN(C(=O)CCN5CCCCC5)CC4)cc3c2C(C)C)cn2nnnc12 [Example 629, 1-(4-(3-isopropyl-2-(8-methyltetrazolo[1,5-a]pyridin-6-yl)-1H-indol-5-yl)piperidin-1-yl)-3-(piperidin-1-yl)propan-1-one] | < 100 | 1000 to 50000 | < 100 |
| Cc1cc(-c2[nH]c3ccc(C4CCN(C(=O)CCN5CCC(F)(F)C5)CC4)cc3c2C(C)C)cn2nnnc12 [Example 626, 3-(3,3-difluoropyrrolidin-1-yl)-1-(4-(3-isopropyl-2-(8-methyltetrazolo[1,5-a]pyridin-6-yl)-1H-indol-5-yl)piperidin-1-yl)propan-1-one] | 100 to 1000 | > 50000 | < 100 |

More lines, now with the values ahead:

| IC50 (human TLR8) [nM] | IC50 (human TLR9) [nM] | IC50 (human TLR7) [nM] | Structure (SMILES) |
| --- | --- | --- | --- |
| < 100 | 1000 to 50000 | < 100 | Cc1c(-c2[nH]c3ccc(C4CCN(C(=O)CN(C)C)CC4)cc3c2C(C)C)cn2nnnc2c1C [Example 468, 2-(dimethylamino)-1-(4-(2-(7,8-dimethyltetrazolo[1,5-a]pyridin-6-yl)-3-isopropyl-1H-indol-5-yl)piperidin-1-yl)ethan-1-one] |
| 100 to 1000 | < 100 | < 100 | FC(F)Cc1c(-c2ccn3ccnc3c2)[nH]c2ccc(C3CCNCC3)cc12 [Example 189, 7-(3-(2,2-difluoroethyl)-5-(piperidin-4-yl)-1H-indol-2-yl)imidazo[1,2-a]pyridine] |
| < 100 | 100 to 1000 | < 100 | CC(C)c1c(-c2ccnc3[nH]ncc23)[nH]c2ccc(C3CCN(Cc4c[nH]cn4)CC3)cc12 [Example 870, 4-(5-(1-((1H-imidazol-4-yl)methyl)piperidin-4-yl)-3-isopropyl-1H-indol-2-yl)-1H-pyrazolo[3,4-b]pyridine] |
| < 100 | 1000 to 50000 | < 100 | Cc1cc(-c2[nH]c3ccc(C4CCN(CC(C)(C)O)CC4)cc3c2C(C)C)c2ccccc2n1 [Example 752, 1-(4-(3-isopropyl-2-(2-methylquinolin-4-yl)-1H-indol-5-yl)piperidin-1-yl)-2-methylpropan-2-ol] |
| < 100 | 1000 to 50000 | < 100 | CC(C)c1c(-c2cc(CO)c3nnnn3c2)[nH]c2ccc(C3CCN(C4COC4)CC3)cc12 [Example 738, (6-(3-isopropyl-5-(1-(oxetan-3-yl)piperidin-4-yl)-1H-indol-2-yl)tetrazolo[1,5-a]pyridin-8-yl)methanol] |
| < 100 | 1000 to 50000 | < 100 | Cc1cc(-c2[nH]c3ccc(C4CCN(C5COC5)CC4)cc3c2C(C)C)cn2nnnc12 [Example 741, 6-(3-isopropyl-5-(1-(oxetan-3-yl)piperidin-4-yl)-1H-indol-2-yl)-8-methyltetrazolo[1,5-a]pyridine] |
| < 100 | 1000 to 50000 | < 100 | Cc1cc(-c2[nH]c3ccc(C4CCN(C(=O)CN(C)C)CC4)cc3c2C(C)C)cc2cnnn12 [Example 488, 2-(dimethylamino)-1-(4-(3-isopropyl-2-(7-methyl-[1,2,3]triazolo[1,5-a]pyridin-5-yl)-1H-indol-5-yl)piperidin-1-yl)ethan-1-one] |
